Experimental data reported in publication PMC9867241, “Antioxidant and Cytotoxic Activity of New Polyphenolic Derivatives of Quinazolin-4(3H)-one: Synthesis and In Vitro Activities Evaluation” (Pharmaceutics, 2022).
Values after ≈ are worked out from the molar mass of the structure shown.

What was measured:
[1] = DPPH˙ radical scavenging assay
Method: (§1) The stock solutions (1 mg/mL) of the tested compounds and the controls were obtained, by dissolving the substances in dimethyl sulfoxide (DMSO). Using Jasco V-530, an UV-VIS spectrophotometer (Jasco International Co., Ltd., Tokyo, Japan), we performed the colorimetric determinations in low-volume single-use 10 mm width cuvettes.
(§2) The assays were performed in triplicate and the results are presented as averages for each assay.
The DPPH˙ radical scavenging assay is based on the transfer of one hydrogen from the analyzed compound to the violet stable free radical DPPH˙ (2,2-diphenyl-1-picrylhydrazyl), as we convert it into a yellow compound. The absorbance of the reagent mixed with samples presented inversely proportional values to the amount of DPPH˙ neutralized. The absorbance of the reagent was measured at λ = 517 nm, according to our previous reports. The assay was made in the presence of various concentrations of samples. The used protocol is based on the report of Brand-Williams et al..

[2] = Ferric reducing antioxidant potential (FRAP) assay; set-up: concentration or dose not given beside the values; settings: for FRAP, % of Activity of Trolox: relative to Trolox; for FRAP, % of Activity of Ascorbic Acid: relative to ascorbic acid
Method: In the ferric reducing antioxidant potential (FRAP) assay, in comparison with a blank sample prepared from DMSO mixed with FRAP reagent, the absorbance of the solutions was measured at λ = 593 nm. The compounds were tested according to a modified method proposed initially by Benzie and Strain [31]. Using Equation (4), we calculated the reducing antioxidant potential of 5a–d and 6a–d as a percentage of the activity of the reference compounds:(4) % of control activity=sample absorbance/reference absorbance×100
Ferrous ions resulting from the reduction of ferric ions in the presence of an antioxidant compound form a blue-colored complex (Fe^2+-TPTZ) at pH = 3.6 with tripyridyltriazine (2,4,6-tris(2-pyridyl)-s-triazine). The intensity of the blue complex formed is proportional to the number of ferrous ions. Compounds 5a, 5c and 5d expressed a good electron donation capacity.

[3] = Molecular properties computed with SwissADME; settings: ratio of computed water solubilities
Source text: In order to obtain preliminary information regarding molecular properties which could influence the pharmacokinetics of the compounds, we obtained them using SwissADME [44]. The evaluated molecular properties were the topological polar surface area (TPSA), octanol–water partition coefficient expressed as Moriguchi’s LogP [46], water solubility and violations of the Lipinski’s rule of five.

[4] = ABTS˙+ radical scavenging assay
Method: as §1, §2

[5] = Cu^2+ chelation assay (murexide competition)
Source text: With murexide as a chromophoric chelator, we performed the protocol followed for the evaluation of Cu^2+ chelating activities of the compounds using an adaptation of the method presented by Cesari et al. and Wu et al.. Using Equation (6), we calculated the copper chelation capacities of the 5a–d and 6a–d compounds:(6) copper chelation (%)=(A485/A520)control−(A485/A520)sample/(A485/A520)control×100
The evaluation of the Cu^2+ chelation activity of compounds was made based on the competition for Cu^2+ with murexide. The chelating activity of compounds for the cupric ions found in the current assay is significant for the pyrogallol derivatives, being quite close to EDTA-Na2.

[6] = test system: LNCaP (prostate carcinoma) cells; experiment: Cytotoxicity, Alamar blue assay, LNCaP cells; assay type: cell-based; settings: Homo sapiens, 24 h exposure
Source text: Normal human foreskin (BJ) fibroblasts and two types of cancer cells, namely A549 (lung adenocarcinoma) and LNCaP (prostate carcinoma) purchased from American Type Culture Collection (Manassas, VA, USA), were used in the experiments. Each cell line was maintained in a different culture medium, depending on the metabolic necessities of the cells. BJ cells were maintained in Dulbecco’s modified Eagle’s medium (DMEM) with low glucose. A549 cells were maintained in DMEM with high glucose […], while LNCaP cells were grown in Roswell Park Memorial Institute (RPMI) 1640 medium with high glucose (5 g/L). All media used were supplemented with 10% fetal bovine serum (FBS) and were refreshed every two days. Cells were used in experiments or subcultured when they reached 70–80% confluence.
In 100 µL in 96-well plates, a number of 30,000 LNCaP cells, 15,000 A549 cells, and 7500 normal (BJ) cells were seeded. Because the cells have different sizes and volumes, the purpose of the different seedings was to achieve a confluency of 70–80% after 24 h. All types of cells were further exposed to the synthesized compounds (5a–d and 6a–d) for 24 h, at a concentration ranging from 12.5 to 100 µg/mL. Post-exposure, the media were removed, and the cells were washed with phosphate buffer saline (PBS). Their viability was evaluated using Alamar blue (AB) assay as previously described. Briefly, the cells were incubated with a 200 µM resazurin solution for 4 h. Using a Synergy 2 multi-mode microplate reader, we measured the fluorescence. The measurement was performed at λexcitation = 530/25 nm; λemission = 590/35 nm. We conducted the experiments using three biological replicates, each one including 6 technical replicates. As negative controls (NC), cells exposed to culture medium containing 0.2% DMSO were used. Compared to the NC (100%), the results were expressed as relative values. We used IC50 values for the potency evaluation, and calculated them for each cell line, using the dose-effect curves obtained by fitting the experimental data with a 4-parameter logistic curve.
Mean values ± standard deviation (SD) values of at least three biological replicates were used to calculate experimental data. One-way analysis of variance (ANOVA) with a post hoc Holm–Sidak test was used to statistically examine the data. Using SigmaPlot 11.0 software (Systat, Software Inc., Chicago, IL, USA), we performed the graphical display and data analysis. From a statistical point of view, the results were considered different, at values of p < 0.05.

Row | Compound | IC50 [1] | IC50 (DPPH˙ scavenging) [1] | % of DPPH˙ Scavenging ([1]; 1.25 µg/mL) | % of DPPH˙ Scavenging ([1]; 2.5 µg/mL) | % of DPPH˙ Scavenging ([1]; 3.75 µg/mL) | % of DPPH˙ Scavenging ([1]; 5 µg/mL) | % of DPPH˙ Scavenging ([1]; 7.5 µg/mL) | % of DPPH˙ Scavenging ([1]; 10 µg/mL) | % of DPPH˙ Scavenging ([1]; 12.5 µg/mL) | % of DPPH˙ Scavenging ([1]; 15 µg/mL) | FRAP, % of Activity of Trolox [2] | FRAP, % of Activity of Ascorbic Acid [2] | IC50 [4] | IC50 (ABTS˙^+ scavenging) [4] | % of ABTS˙^+ Scavenging ([4]; 0.83 µg/mL) | % of ABTS˙^+ Scavenging ([4]; 1.67 µg/mL) | % of ABTS˙^+ Scavenging ([4]; 3.33 µg/mL) | % of ABTS˙^+ Scavenging ([4]; 4.99 µg/mL) | % of ABTS˙^+ Scavenging ([4]; 6.66 µg/mL) | % of ABTS˙^+ Scavenging ([4]; 9.99 µg/mL) | further results
1 | CCn1c(SCC(=O)NN=Cc2ccc(O)c(O)c2O)nc2ccccc2c1=O [Compound 5c, 2-((3-Ethyl-4-oxo-3,4-dihydroquinazolin-2-yl)thio)-N’-(2,3,4-trihydroxybenzylidene)acetohydrazide] | 4.46 µM | 1.85 µg/mL (≈ 4.46 µM) | 44.32% | 55.40% | 64.87% | 73.44% | 90.15% | + (+ represents more than 95%) | + (+ represents more than 95%) | + (+ represents more than 95%) | 95.70% | 83.40% | 3.86 µM | 1.60 µg/mL (≈ 3.86 µM) | 39.05% | 52.25% | 72.57% | + (+ represents more than 95%) | + (+ represents more than 95%) | + (+ represents more than 95%) | times more soluble in water than 6b [3]: 24 times; % of ABTS˙^+ Scavenging ([4]; 13.32 µg/mL): + (+ represents more than 95%); Cupric ions Chelation Capacity (%) ([5]; 3.36 µg/mL): 13.06%; Cupric ions Chelation Capacity (%) ([5]; 8.40 µg/mL): 23.23%; Cupric ions Chelation Capacity (%) ([5]; 16.80 µg/mL): 32.60%; IC50 [6]: 35.9 µg/mL; melting point: 208 °C
2 | CCCCn1c(SCC(=O)NN=Cc2ccc(O)c(O)c2O)nc2ccccc2c1=O [Compound 5d, 2-((3-Butyl-4-oxo-3,4-dihydroquinazolin-2-yl)thio)-N’-(2,3,4-trihydroxybenzylidene)acetohydrazide] | 4.93 µM | 2.18 µg/mL (≈ 4.93 µM) | 41.12% | 53.03% | 63.53% | 71.70% | 87.99% | + (+ represents more than 95%) | + (+ represents more than 95%) | + (+ represents more than 95%) | 92.71% | 80.80% | 3.5 µM | 1.55 µg/mL (≈ 3.5 µM) | 41.98% | 52.25% | 67.46% | 81.06% | + (+ represents more than 95%) | + (+ represents more than 95%) | % of ABTS˙^+ Scavenging ([4]; 13.32 µg/mL): + (+ represents more than 95%); Cupric ions Chelation Capacity (%) ([5]; 3.36 µg/mL): 14.19%; Cupric ions Chelation Capacity (%) ([5]; 8.40 µg/mL): 28.04%; Cupric ions Chelation Capacity (%) ([5]; 16.80 µg/mL): 41.42%; IC50 [6]: 56.8 µg/mL; melting point: 239 °C
3 | C=CCn1c(SCC(=O)NN=C(C)c2ccc(O)cc2O)nc2ccccc2c1=O [Compound 6a, 2-((3-Allyl-4-oxo-3,4-dihydroquinazolin-2-yl)thio)-N’-(1-(2,4-dihydroxyphenyl)ethylidene)acetohydrazide] | > 30 µM | >15 µg/mL | - (- represents less than 5%) | - (- represents less than 5%) | - (- represents less than 5%) | - (- represents less than 5%) | - (- represents less than 5%) | - (- represents less than 5%) | 12.28% | 21.34% | 26.17% | 22.81% | 16.9 µM | 7.17 µg/mL (≈ 16.9 µM) | 27.03% | 30.08% | 37.19% | 42.27% | 50.03% | 60.55% | % of ABTS˙^+ Scavenging ([4]; 13.32 µg/mL): 70.24%; Cupric ions Chelation Capacity (%) ([5]; 3.36 µg/mL): 10.96%; Cupric ions Chelation Capacity (%) ([5]; 8.40 µg/mL): 20.64%; Cupric ions Chelation Capacity (%) ([5]; 16.80 µg/mL): 31.79%; IC50 [6]: 43.4 µg/mL; melting point: 230 °C
4 | CCCCn1c(SCC(=O)NN=C(C)c2ccc(O)cc2O)nc2ccccc2c1=O [Compound 6d, 2-((3-butyl-4-oxo-3,4-dihydroquinazolin-2-yl)thio)-N’-(1-(2,4-dihydroxyphenyl)ethylidene)acetohydrazide] | > 30 µM | >15 µg/mL | - (- represents less than 5%) | - (- represents less than 5%) | - (- represents less than 5%) | - (- represents less than 5%) | - (- represents less than 5%) | - (- represents less than 5%) | 10.99% | 13.87% | 27.95% | 24.36% | 11.7 µM | 5.17 µg/mL (≈ 11.7 µM) | 29.08% | 33.32% | 40.37% | 50.24% | 57.59% | 75.41% | % of ABTS˙^+ Scavenging ([4]; 13.32 µg/mL): 85.79%; Cupric ions Chelation Capacity (%) ([5]; 3.36 µg/mL): 5.98%; Cupric ions Chelation Capacity (%) ([5]; 8.40 µg/mL): 11.84%; Cupric ions Chelation Capacity (%) ([5]; 16.80 µg/mL): 20.42%; IC50 [6]: 24.3 µg/mL; melting point: 225 °C
